Measured values from ChEMBL document CHEMBL5705893, “Targeting the mitotic checkpoint for cancer therapy with NMS-P715, an inhibitor of MPS1 kinase” (Cancer Res, 2010).
Calls of active or inactive are those of the source. The calls are words filed in the database; no cut-off is given here.

Key:
Activated CDC42 kinase 1 = Activated CDC42 kinase 1 (Homo sapiens, UniProt Q07912); experiment: Inhibition of recombinant ACK1 (unknown origin)
[1] = molecular target: ALK tyrosine kinase receptor (Homo sapiens, UniProt Q9UM73); experiment: Inhibition of recombinant ALK (unknown origin)
[2] = Inhibition of recombinant AUR1 (unknown origin); parameters: species or system Homo sapiens
[3] = Inhibition of recombinant AUR2 (unknown origin); parameters: species or system Homo sapiens
[4] = molecular target: Protein-tyrosine kinase 6 (Homo sapiens, UniProt Q13882); experiment: Inhibition of recombinant BRK (unknown origin)
Casein kinase 2 = Casein kinase 2 (Homo sapiens, UniProt P67870+P68400+P19784+Q8NEV1); experiment: Inhibition of recombinant CK2 (unknown origin); format: protein assay
[5] = molecular target: Receptor-type tyrosine-protein kinase FLT3 (Homo sapiens, UniProt P36888); experiment: Inhibition of recombinant FLT3 (unknown origin)
[6] = molecular target: Tyrosine-protein kinase JAK3 (Homo sapiens, UniProt P52333); experiment: Inhibition of recombinant JAK3 (unknown origin)
[7] = molecular target: Tyrosine-protein kinase Lyn (Homo sapiens, UniProt P07948); experiment: Inhibition of recombinant LYN (unknown origin)
[8] = molecular target: Mitogen-activated protein kinase 14 (Homo sapiens, UniProt Q16539); experiment: Inhibition of recombinant P38alpha (unknown origin)
[9] = molecular target: Serine/threonine-protein kinase pim-2 (Homo sapiens, UniProt Q9P1W9); experiment: Inhibition of recombinant PIM2 (unknown origin)
[10] = molecular target: Serine/threonine-protein kinase PLK3 (Homo sapiens, UniProt Q9H4B4); experiment: Inhibition of recombinant PLK3 (unknown origin)
[11] = Inhibition of recombinant SULU1 (unknown origin); parameters: species or system Homo sapiens
[12] = molecular target: High affinity nerve growth factor receptor (Homo sapiens, UniProt P04629); experiment: Inhibition of recombinant TRKA (unknown origin)
[13] = molecular target: Non-receptor tyrosine-protein kinase TYK2 (Homo sapiens, UniProt P29597); experiment: Inhibition of recombinant TYK 2 (unknown origin)
[14] = molecular target: Vascular endothelial growth factor receptor 2 (Homo sapiens, UniProt P35968); experiment: Inhibition of recombinant VEGFR2 (unknown origin)
C-33-A = experiment: Antiproliferative activity against human C-33-A cells assessed as inhibition of cell growth incubated for 72 hrs by celltiter-glo assay; format: functional, cell-based
KM12 = experiment: Antiproliferative activity against human KM12 cells assessed as inhibition of cell growth incubated for 72 hrs by celltiter-glo assay; format: functional, cell-based; details: KM12, 72 h
LoVo = experiment: Antiproliferative activity against human LoVo cells assessed as inhibition of cell growth incubated for 72 hrs by celltiter-glo assay; format: functional, cell-based
K562 = experiment: Antiproliferative activity against human K562 cells assessed as inhibition of cell growth incubated for 72 hrs by celltiter-glo assay; format: functional, cell-based; details: K562, 72 h
TF-1 = experiment: Antiproliferative activity against human TF-1 cells assessed as inhibition of cell growth incubated for 72 hrs by celltiter-glo assay; format: functional, cell-based; details: TF-1, 72 h
RERF-LC-AI = experiment: Antiproliferative activity against human RERF-LC-AI cells assessed as inhibition of cell growth incubated for 72 hrs by celltiter-glo assay; format: functional, cell-based
HOP-92 = experiment: Antiproliferative activity against human HOP-92 cells assessed as inhibition of cell growth incubated for 72 hrs by celltiter-glo assay; format: functional, cell-based; details: HOP-92, 72 h
NCI-H460 = experiment: Antiproliferative activity against human NCI-H460 cells assessed as inhibition of cell growth incubated for 72 hrs by celltiter-glo assay; format: functional, cell-based; details: NCI-H460, 72 h
NCI-H146 = experiment: Antiproliferative activity against human NCI-H146 cells assessed as inhibition of cell growth incubated for 72 hrs by celltiter-glo assay; format: functional, cell-based; details: NCI-H146, 72 h
SK-LU-1 = experiment: Antiproliferative activity against human SK-LU-1 cells assessed as inhibition of cell growth incubated for 72 hrs by celltiter-glo assay; format: functional, cell-based; details: SK-LU-1, 72 h
EKVX = experiment: Antiproliferative activity against human EKVX cells assessed as inhibition of cell growth incubated for 72 hrs by celltiter-glo assay; format: functional, cell-based
MV4-11 = experiment: Antiproliferative activity against human MV4-11 cells assessed as inhibition of cell growth incubated for 72 hrs by celltiter-glo assay; format: functional, cell-based; details: MV4-11, 72 h
SU-DHL10 = experiment: Antiproliferative activity against human SU-DHL-10 cells assessed as inhibition of cell growth incubated for 72 hrs by celltiter-glo assay; format: functional, cell-based; details: SU-DHL10, 72 h
Toledo = experiment: Antiproliferative activity against human Toledo cells assessed as inhibition of cell growth incubated for 72 hrs by celltiter-glo assay; format: functional, cell-based
SU-DHL-1 = experiment: Antiproliferative activity against human SU-DHL-1 cells assessed as inhibition of cell growth incubated for 72 hrs by celltiter-glo assay; format: functional, cell-based; details: SU-DHL-1, 72 h
MeWo = experiment: Antiproliferative activity against human MeWo cells assessed as inhibition of cell growth incubated for 72 hrs by celltiter-glo assay; format: functional, cell-based
U-266 = experiment: Antiproliferative activity against human U-266 cells assessed as inhibition of cell growth incubated for 72 hrs by celltiter-glo assay; format: functional, cell-based; details: U-266, 72 h
IGROV-1 = experiment: Antiproliferative activity against human IGROV-1 cells assessed as inhibition of cell growth incubated for 72 hrs by celltiter-glo assay; format: functional, cell-based; details: IGROV-1, 72 h
SK-OV-3 = experiment: Antiproliferative activity against human SK-OV-3 cells assessed as inhibition of cell growth incubated for 72 hrs by celltiter-glo assay; format: functional, cell-based; details: SK-OV-3, 72 h
SN12C = experiment: Antiproliferative activity against human SN12C cells assessed as inhibition of cell growth incubated for 72 hrs by celltiter-glo assay; format: functional, cell-based
A498 = experiment: Antiproliferative activity against human A498 cells assessed as inhibition of cell growth incubated for 72 hrs by celltiter-glo assay; format: functional, cell-based; details: A498, 72 h
U2OS = experiment: Induction of mitotic arrest in human U2OS cells expressing YFP-alpha-tubulin assessed as effect on bipolar spindle formation at 1 micromol/L by time-lapse microscopic analysis; format: functional, cell-based; details: dose 1.0 µmol/L
HeLa [15] = experiment: Induction of mitotic arrest in human nocodazole-arrested HeLa cells assessed as delocalization of MAD1 at 1 micromol/L in presence of MG132; format: functional, cell-based; details: dose 1.0 µmol/L
HeLa [16] = experiment: Effect on HEC1 level in human nocodazole-arrested HeLa cells at 1 micromol/L in presence of MG132; format: functional, cell-based; details: dose 1.0 µmol/L
HCT-116 = experiment: Cell cycle arrest in human HCT-116 cells assessed as accumulation of cells at G1 phase at 0.2 to 1 micromol/L incubated for 48 hrs by FACS/PI staining based flow cytometric analysis; format: functional; details: dose 0.2-1 µmol/L
A2780 = experiment: Induction of apoptosis in human A2780 cells assessed as upregulation of histone H3 dephosphorylation at 0.2 to 1 micromol/L incubated for 2 to 72 hrs by Western blot analysis; format: functional, cell-based; details: dose 0.2-1 µmol/L, time 2-72 hrs
[17] = Cmax in Athymic nu-nu mouse at 100 mg/kg, po measured upto 24 hrs by LC-MS/MS analysis; format: ADME, organism-based; details: in vivo
[18] = Oral bioavailability in Athymic nu-nu mouse at 100 mg/kg measured upto 24 hrs by LC-MS/MS analysis; format: ADME, organism-based; details: in vivo

Sequence of Protein-tyrosine kinase 6 (Q13882 whole entry): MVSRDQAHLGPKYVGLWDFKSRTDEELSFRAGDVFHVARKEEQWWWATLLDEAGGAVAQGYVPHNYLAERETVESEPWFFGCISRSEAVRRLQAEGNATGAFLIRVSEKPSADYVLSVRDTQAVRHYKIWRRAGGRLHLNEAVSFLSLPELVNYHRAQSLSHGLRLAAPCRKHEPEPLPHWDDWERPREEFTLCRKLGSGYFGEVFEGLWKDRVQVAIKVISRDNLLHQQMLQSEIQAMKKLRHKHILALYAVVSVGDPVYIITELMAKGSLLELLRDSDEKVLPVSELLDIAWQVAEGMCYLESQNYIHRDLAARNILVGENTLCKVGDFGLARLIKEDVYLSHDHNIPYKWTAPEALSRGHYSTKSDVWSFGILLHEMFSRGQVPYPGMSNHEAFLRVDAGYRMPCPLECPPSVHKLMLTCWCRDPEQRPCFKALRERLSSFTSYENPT
Sequence of Receptor-type tyrosine-protein kinase FLT3 (P36888 whole entry): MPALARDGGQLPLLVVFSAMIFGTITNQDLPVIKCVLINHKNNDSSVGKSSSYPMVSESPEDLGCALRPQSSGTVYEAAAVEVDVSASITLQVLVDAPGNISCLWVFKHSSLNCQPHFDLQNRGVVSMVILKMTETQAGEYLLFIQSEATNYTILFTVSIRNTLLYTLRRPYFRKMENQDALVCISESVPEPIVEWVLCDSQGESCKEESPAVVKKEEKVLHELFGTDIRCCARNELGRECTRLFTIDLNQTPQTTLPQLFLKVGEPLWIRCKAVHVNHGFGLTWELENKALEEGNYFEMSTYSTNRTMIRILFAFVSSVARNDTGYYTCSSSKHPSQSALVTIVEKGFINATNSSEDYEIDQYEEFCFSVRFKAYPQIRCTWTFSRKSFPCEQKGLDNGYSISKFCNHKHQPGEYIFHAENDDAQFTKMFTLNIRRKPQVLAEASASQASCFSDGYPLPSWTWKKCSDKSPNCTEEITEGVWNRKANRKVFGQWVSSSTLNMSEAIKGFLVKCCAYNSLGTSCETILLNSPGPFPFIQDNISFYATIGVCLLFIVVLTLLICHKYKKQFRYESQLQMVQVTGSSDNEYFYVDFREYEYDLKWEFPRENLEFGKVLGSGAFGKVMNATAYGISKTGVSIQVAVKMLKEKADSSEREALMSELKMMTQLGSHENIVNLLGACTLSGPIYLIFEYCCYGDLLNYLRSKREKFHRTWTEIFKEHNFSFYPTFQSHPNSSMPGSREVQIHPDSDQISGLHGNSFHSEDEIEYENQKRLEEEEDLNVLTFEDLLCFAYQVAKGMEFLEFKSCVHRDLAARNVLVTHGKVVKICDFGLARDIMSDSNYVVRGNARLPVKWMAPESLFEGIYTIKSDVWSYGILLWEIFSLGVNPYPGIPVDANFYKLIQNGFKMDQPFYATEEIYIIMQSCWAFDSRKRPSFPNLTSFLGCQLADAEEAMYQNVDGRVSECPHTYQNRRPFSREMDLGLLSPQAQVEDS
Sequence of Tyrosine-protein kinase Lyn (P07948 whole entry): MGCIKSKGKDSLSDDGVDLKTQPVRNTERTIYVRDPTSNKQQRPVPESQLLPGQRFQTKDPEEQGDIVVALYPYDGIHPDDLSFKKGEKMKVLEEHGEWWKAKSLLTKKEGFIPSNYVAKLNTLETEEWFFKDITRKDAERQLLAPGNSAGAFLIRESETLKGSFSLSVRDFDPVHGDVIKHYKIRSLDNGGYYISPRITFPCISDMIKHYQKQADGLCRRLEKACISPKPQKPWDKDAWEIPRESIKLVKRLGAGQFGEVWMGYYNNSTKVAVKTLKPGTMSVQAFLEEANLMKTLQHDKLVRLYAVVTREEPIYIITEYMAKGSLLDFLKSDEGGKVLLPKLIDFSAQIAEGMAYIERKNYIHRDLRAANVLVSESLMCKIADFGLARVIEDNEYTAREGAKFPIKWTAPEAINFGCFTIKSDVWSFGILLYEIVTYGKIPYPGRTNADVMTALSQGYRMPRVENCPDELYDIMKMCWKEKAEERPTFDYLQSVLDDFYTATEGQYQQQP
Sequence of Mitogen-activated protein kinase 14 (Q16539 whole entry): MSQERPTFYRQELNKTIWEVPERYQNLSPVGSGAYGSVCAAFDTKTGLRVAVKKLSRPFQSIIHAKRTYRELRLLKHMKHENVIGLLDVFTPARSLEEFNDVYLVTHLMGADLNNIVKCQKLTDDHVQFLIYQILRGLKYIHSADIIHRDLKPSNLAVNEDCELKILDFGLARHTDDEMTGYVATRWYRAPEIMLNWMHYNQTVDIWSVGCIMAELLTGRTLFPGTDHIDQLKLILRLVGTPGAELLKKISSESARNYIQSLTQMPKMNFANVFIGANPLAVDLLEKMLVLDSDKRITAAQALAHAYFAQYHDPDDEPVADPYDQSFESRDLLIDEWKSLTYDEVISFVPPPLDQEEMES
Sequence of Vascular endothelial growth factor receptor 2 (P35968 whole entry): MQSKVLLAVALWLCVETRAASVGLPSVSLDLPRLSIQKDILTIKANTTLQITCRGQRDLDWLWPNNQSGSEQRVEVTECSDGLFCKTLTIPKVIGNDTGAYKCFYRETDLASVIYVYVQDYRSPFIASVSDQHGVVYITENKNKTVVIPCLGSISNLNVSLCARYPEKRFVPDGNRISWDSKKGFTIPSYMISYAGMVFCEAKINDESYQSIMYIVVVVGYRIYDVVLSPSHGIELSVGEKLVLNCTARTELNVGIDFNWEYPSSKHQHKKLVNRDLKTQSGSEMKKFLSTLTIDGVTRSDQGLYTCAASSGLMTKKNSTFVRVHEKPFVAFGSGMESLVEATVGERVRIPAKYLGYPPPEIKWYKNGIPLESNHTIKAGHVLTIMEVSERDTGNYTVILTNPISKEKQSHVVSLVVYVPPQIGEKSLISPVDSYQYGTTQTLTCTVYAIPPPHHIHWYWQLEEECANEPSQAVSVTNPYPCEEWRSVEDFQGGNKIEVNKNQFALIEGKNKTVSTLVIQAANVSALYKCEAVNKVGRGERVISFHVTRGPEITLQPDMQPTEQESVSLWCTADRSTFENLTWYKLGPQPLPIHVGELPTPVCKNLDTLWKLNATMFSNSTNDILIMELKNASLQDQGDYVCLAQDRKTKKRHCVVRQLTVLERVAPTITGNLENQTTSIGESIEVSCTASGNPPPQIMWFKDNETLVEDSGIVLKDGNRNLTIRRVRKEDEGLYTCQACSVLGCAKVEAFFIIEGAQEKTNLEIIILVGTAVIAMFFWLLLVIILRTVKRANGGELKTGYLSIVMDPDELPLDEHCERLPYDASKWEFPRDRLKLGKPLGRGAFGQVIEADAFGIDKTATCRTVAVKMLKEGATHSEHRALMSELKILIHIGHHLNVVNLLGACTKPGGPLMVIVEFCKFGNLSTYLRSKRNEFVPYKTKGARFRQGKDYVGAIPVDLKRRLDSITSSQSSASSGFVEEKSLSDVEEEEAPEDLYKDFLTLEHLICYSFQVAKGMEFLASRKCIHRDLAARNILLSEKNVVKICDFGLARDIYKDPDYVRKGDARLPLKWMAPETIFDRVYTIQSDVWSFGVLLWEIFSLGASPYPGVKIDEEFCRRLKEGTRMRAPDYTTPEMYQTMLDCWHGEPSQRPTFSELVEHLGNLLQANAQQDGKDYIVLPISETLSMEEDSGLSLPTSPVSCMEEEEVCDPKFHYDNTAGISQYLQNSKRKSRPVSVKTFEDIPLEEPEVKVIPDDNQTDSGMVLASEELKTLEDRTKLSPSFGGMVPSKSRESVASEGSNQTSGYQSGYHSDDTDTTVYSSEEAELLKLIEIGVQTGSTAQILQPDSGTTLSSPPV
Sequence of Serine/threonine-protein kinase PLK3 (Q9H4B4 whole entry): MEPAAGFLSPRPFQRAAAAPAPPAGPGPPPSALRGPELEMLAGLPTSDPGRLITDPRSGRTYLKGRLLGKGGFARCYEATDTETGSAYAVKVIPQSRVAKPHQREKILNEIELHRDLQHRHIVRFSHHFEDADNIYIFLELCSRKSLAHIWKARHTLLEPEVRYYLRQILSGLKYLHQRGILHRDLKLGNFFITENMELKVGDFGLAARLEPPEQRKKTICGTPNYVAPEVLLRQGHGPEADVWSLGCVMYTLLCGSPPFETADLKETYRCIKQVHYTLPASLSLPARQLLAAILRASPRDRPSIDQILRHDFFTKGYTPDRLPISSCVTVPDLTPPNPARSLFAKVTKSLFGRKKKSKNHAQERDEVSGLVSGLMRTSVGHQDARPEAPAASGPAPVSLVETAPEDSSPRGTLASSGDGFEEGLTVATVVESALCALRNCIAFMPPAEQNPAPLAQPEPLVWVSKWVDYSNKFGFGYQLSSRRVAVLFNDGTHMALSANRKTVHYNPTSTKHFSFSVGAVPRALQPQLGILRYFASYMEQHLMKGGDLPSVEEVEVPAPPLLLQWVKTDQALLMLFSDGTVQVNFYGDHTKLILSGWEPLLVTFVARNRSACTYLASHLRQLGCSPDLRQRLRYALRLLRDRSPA
Sequence of Serine/threonine-protein kinase pim-2 (Q9P1W9 whole entry): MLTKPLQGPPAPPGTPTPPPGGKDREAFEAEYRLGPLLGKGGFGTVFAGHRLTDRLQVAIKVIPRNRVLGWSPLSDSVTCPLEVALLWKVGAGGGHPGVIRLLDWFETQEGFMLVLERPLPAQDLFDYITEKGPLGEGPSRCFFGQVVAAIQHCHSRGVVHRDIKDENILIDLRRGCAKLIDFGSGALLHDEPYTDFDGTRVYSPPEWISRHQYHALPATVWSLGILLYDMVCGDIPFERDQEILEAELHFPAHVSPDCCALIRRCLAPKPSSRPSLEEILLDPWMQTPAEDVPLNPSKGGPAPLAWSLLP

CCc1cccc(CC)c1NC(=O)c1nn(C)c2c1CCc1cnc(Nc3ccc(C(=O)NC4CCN(C)CC4)cc3OC(F)(F)F)nc1-2
IC50 (Activated CDC42 kinase 1): > 10 µM
IC50 [1]: > 10 µM
IC50 [2]: > 10 µM
IC50 [3]: > 10 µM
IC50 [4]: > 10 µM
IC50 (Casein kinase 2): 5.7 µM
IC50 [5]: > 10 µM
IC50 [6]: > 10 µM
IC50 [7]: > 10 µM
IC50 [8]: > 10 µM
IC50 [9]: > 10 µM
IC50 [10]: > 10 µM
IC50 [11]: > 10 µM
IC50 [12]: > 10 µM
IC50 [13]: > 10 µM
IC50 [14]: > 10 µM
IC50 (C-33-A): 3.01 µM
IC50 (KM12): 0.586 µM
IC50 (LoVo): 1.87 µM
IC50 (K562): 2.71 µM
IC50 (TF-1): 6.53 µM
IC50 (RERF-LC-AI): 2.07 µM
IC50 (HOP-92): 2.18 µM
IC50 (NCI-H460): 2.19 µM
IC50 (NCI-H146): 4.28 µM
IC50 (SK-LU-1): 5 µM
IC50 (EKVX): 6.98 µM
IC50 (MV4-11): 1.14 µM
IC50 (SU-DHL10): 1.58 µM
IC50 (Toledo): 1.72 µM
IC50 (SU-DHL-1): 3.31 µM
IC50 (MeWo): 3.26 µM
IC50 (U-266): 5.93 µM
IC50 (IGROV-1): 1.15 µM
IC50 (SK-OV-3): 4.26 µM
IC50 (SN12C): 1.23 µM
IC50 (A498): 1.71 µM
Activity (U2OS): Active
Activity (HeLa [15]): Active
Activity (HeLa [16]): Active
Activity (HCT-116): Active
Activity (A2780): Active
Cmax [17]: 1790 nM
bioavailability [18]: 22.6%
